For 17 compounds, IC50 results are on record in patent US20250215029A1 (Recludix Pharma, Inc., priority 2022, published 2025).

The target in test [1] is T1, Recombinant STAT3 protein (STAT3 (G127-I722)) (Homo sapiens, UniProt P40763).
T1 construct: Recombinant STAT3 protein (STAT3 (G127-I722))
In words: STAT3 Fluorescence Polarization (FP) Assay. The test is classed as binding. Conditions: probe 5-FAM-GpYLPQTV-NH2 2 nM, 45-minute incubation. The essentials:
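Displacement of a 2 nM 5-FAM-labelled pY peptide (GpYLPQTV) from 25 nM recombinant STAT3 (G127-I722) was monitored by fluorescence polarization. Incubation lasted 45 min at room temperature in pH 7.4 HEPES buffer containing 1% DMSO.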

Test [2] addresses T2, Recombinant STAT6 protein (STAT6 (W123-T658)) (Homo sapiens, UniProt P42226).
T2 construct: Recombinant STAT6 protein (STAT6 (W123-T658))
T2 sequence (P42226 123-658): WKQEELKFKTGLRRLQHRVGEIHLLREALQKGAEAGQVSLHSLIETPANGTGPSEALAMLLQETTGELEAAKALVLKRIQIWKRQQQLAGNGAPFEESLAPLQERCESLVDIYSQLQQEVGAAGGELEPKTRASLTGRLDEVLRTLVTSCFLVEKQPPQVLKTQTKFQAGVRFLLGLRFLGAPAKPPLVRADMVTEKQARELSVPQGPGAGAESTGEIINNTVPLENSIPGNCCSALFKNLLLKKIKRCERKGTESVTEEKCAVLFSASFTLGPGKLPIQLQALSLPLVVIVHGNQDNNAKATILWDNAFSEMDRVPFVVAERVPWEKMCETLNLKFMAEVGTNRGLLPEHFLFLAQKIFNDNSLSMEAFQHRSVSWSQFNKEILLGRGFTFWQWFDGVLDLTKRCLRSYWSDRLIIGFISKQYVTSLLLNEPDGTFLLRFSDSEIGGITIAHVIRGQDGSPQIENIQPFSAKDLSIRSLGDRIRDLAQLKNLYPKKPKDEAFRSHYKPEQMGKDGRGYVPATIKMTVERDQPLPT
In words: STAT6 Fluorescence Polarization (FP) Assay. The test is classed as binding. The conditions noted are these: 45-minute incubation. The gist of the method:
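Competitive FP binding: recombinant STAT6 (W123-T658) at 250 nM, labeled phosphotyrosine peptide at 2 nM, compounds at 1% DMSO, 45 min at RT before reading. IC50 values were obtained from nonlinear regression of mP versus log concentration.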

Where [3] appears, read: STAT3 (G127-I722) 25 nM, read-out: STAT3 (FP assay IC50 class).
Setting [4] is: STAT6 (W123-T658) 250 nM, probe 5-FAM-Ap[…]-NH2 2 nM, read-out: STAT6 (FP assay IC50 class).
Setting [5] is: STAT3 25 nM, read-out: STAT3 (FP assay IC50).
Where [6] appears, read: STAT6 250 nM, probe 5-FAM-Ap[…]-NH2 2 nM, read-out: STAT6 (FP assay IC50).

The structures appear in SMILES notation. Like-named read-outs stand apart in the source and are kept apart here.

T1 sequence (P40763 127-722): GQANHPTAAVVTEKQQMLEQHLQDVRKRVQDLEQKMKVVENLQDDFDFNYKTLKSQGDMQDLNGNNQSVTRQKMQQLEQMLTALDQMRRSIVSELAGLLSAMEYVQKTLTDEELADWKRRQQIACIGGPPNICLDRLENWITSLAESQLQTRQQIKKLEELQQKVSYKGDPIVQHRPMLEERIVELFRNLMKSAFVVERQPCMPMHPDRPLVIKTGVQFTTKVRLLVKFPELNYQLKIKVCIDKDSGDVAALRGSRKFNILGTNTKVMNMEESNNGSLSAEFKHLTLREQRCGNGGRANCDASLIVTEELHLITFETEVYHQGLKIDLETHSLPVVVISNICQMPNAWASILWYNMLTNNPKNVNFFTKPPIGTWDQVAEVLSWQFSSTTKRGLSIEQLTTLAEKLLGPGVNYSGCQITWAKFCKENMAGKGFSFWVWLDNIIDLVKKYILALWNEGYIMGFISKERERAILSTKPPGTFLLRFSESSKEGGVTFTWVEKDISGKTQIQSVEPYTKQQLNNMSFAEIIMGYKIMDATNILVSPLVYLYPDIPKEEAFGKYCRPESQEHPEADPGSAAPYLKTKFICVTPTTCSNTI

With `COCC1CN(c2ccncc2C2CN(C(=O)[C@@H]3CC[C@@H]4CCC[C@H](NC(=O)c5cc6cc([C@@H](F)P(=O)(O)O)ccc6s5)C(=O)N43)C2)C1` [Compound 856, ((S)-fluoro(2-(((3S,6S,9aS)-3-(3-(4-(3-(methoxymethyl)azetidin-1-yl)pyridin-3-yl)azetidine-1-carbonyl)-5-oxooctahydro-1H-pyrrolo[1,2-a]azepin-6-yl)carbamoyl)benzo [b]thiophen-5-yl)methyl) phosphonic acid], the IC50 in test [1] (setting [3]) was less than 0.1 µM; in test [2] (setting [4]) it was 0.3 to 3 µM.
`N#C[C@H]1CN(C(=O)[C@@H]2CC[C@@H]3/C=C\CC[C@H](NC(=O)c4cc5cc(C(F)(F)P(=O)(O)O)ccc5s4)C(=O)N32)C[C@@H]1c1ccccc1` (relative stereo) [Compound 27, ((2-(((3S,6S,10aR,Z)-3-(rel-trans)3-cyano-4-phenylpyrrolidine-1-carbonyl)-5-oxo-1,2,3,5,6,7,8,10a-octahydropyrrolo[1,2-a]azocin-6-yl)carbamoyl)benzo[b]thiophen-5-yl) difluoromethyl) phosphonic acid]: the half-maximal inhibitory concentration (IC50) in test [1] (setting [5]) was 1 to 10 µM; in test [2] (setting [6]) it was not above 0.3 µM.
As for `O=C(N[C@H]1CCC[C@H]2CC[C@@H](C(=O)N3CC(c4cncnc4N4CCC4)C3)N2C1=O)c1cc2cc(CP(=O)(O)O)ccc2s1` [Compound 681, ((2-(((3S,6S,9aS)-3-(3-(4-(azetidin-1-yl)pyrimidin-5-yl)azetidine-1-carbonyl)-5-oxooctahydro-1H-pyrrolo[1,2-a]azepin-6-yl)carbamoyl)benzo [b]thiophen-5-yl)methyl) phosphonic acid], the IC50 is less than 0.1 µM in test [1] (setting [3]) and 3 to 30 µM in test [2] (setting [4]).
As for `CCOc1ccncc1C1CN(C(=O)[C@@H]2CC[C@@H]3CCC[C@H](NC(=O)c4cc5cc([C@@H](F)P(=O)(O)O)ccc5s4)C(=O)N32)C1` (single isomer, unassigned) [Compound 771], the IC50 in test [1] (setting [3]) is less than 0.1 µM; in test [2] (setting [4]), 3 to 30 µM.
Regarding `Cn1nccc1C=C1CN(C(=O)[C@@H]2CC[C@@H]3CCCC[C@H](NC(=O)c4cc5cc(C(F)(F)P(=O)(O)O)ccc5s4)C(=O)N32)C1` [Compound 69, (difluoro(2-(((3S,6S,10aS)-3-(3-((1-methyl-1H-pyrazol-5-yl)methylene)azetidine-1-carbonyl)-5-oxodecahydropyrrolo [1,2-a]azocin-6-yl)carbamoyl)benzo[b]thiophen-5-yl)methyl) phosphonic acid], the figures for the half-maximal inhibitory concentration (IC50) in test [1] (setting [5]) and in test [2] (setting [6]) were 0.1 to 1 µM and 0.3 to 3 µM, respectively.
For `O=C(N[C@H]1CCCC[C@H]2CC[C@@H](C(=O)N3CCC(c4cccnc4)C3)N2C1=O)c1cc2cc(C(F)P(=O)(O)O)ccc2s1` (stereo partly drawn) [Compound 223, (fluoro(2-(((3S,6S,10aS)-5-oxo-3-(3-(pyridin-3-yl)pyrrolidine-1-carbonyl)decahydropyrrolo[1,2-a]azocin-6-yl)carbamoyl)benzo[b]thiophen-5-yl)methyl)phosphonic acid], the IC50 in test [1] (setting [3]) lay within 0.1 to 1 µM; in test [2] (setting [4]), 0.3 to 3 µM.
As to `O=C(N[C@H]1C[C@@H](OCc2ccccc2)CC[C@H]2CC[C@@H](C(=O)N3CC(C(=O)N4CCOCC4)C3)N2C1=O)c1cc2cc(C(F)(F)P(=O)(O)O)ccc2s1` [Compound 8, ((2-(((3S,6S,8S,10aR)-8-(benzyloxy)-3-(3-(morpholine-4-carbonyl)azetidine-1-carbonyl)-5-oxodecahydropyrrolo [1,2-a]azocin-6-yl)carbamoyl)benzo [b]thiophen-5-yl)difluoromethyl) phosphonic acid], the concentration for half-maximal inhibition (IC50) in test [1] (setting [5]) is 0.1 to 1 µM; in test [2] (setting [6]) it was 3 to 30 µM.
Take `C[C@@H]1COCCN1c1ccncc1C1CN(C(=O)[C@@H]2CC[C@@H]3CCC[C@H](NC(=O)c4cc5cc(CP(=O)(O)O)ccc5s4)C(=O)N32)C1` [Compound 860, ((2-(((3S,6S,9aS)-3-(3-(4-((R)-3-methylmorpholino)pyridin-3-yl)azetidine-1-carbonyl)-5-oxooctahydro-1H-pyrrolo[1,2-a]azepin-6-yl)carbamoyl)benzo [b]thiophen-5-yl)methyl) phosphonic acid]: the IC50 in test [1] (setting [3]) lay in the range of 0.1 to 1 µM; in test [2] (setting [4]), 3 to 30 µM.
For the compound `O=C(N[C@H]1CC[C@@H](OCc2ccccc2)C[C@H]2CC[C@@H](C(=O)N3CC(C(=O)N4CCOCC4)C3)N2C1=O)c1cc2cc(C(F)(F)P(=O)(O)O)ccc2s1` [Compound 6, ((2-(((3S,6S,9R,10aR)-9-(benzyloxy)-3-(3-(morpholine-4-carbonyl)azetidine-1-carbonyl)-5-oxodecahydropyrrolo [1,2-a]azocin-6-yl)carbamoyl)benzo[b]thiophen-5-yl)difluoromethyl) phosphonic acid], the IC50 fell in the range of 0.1 to 1 µM in test [1] (setting [5]) and 3 to 30 µM in test [2] (setting [6]).
For `O=C(N[C@H]1CCC[C@H]2CC[C@@H](C(=O)N3CC(c4cnccc4N4CCOCC4)C3)N2C1=O)c1cc2cc(CP(=O)(O)O)ccc2s1` [Compound 750, ((2-(((3S,6S,9aS)-3-(3-(4-morpholinopyridin-3-yl)azetidine-1-carbonyl)-5-oxooctahydro-1H-pyrrolo[1,2-a]azepin-6-yl)carbamoyl)benzo [b]thiophen-5-yl)methyl) phosphonic acid], the values for the concentration for half-maximal inhibition (IC50) in test [1] (setting [3]) and in test [2] (setting [4]) were less than 0.1 µM and 3 to 30 µM, respectively.
Take `COc1cc(C(F)F)ncc1C1CN(C(=O)[C@@H]2CC[C@@H]3CCC[C@H](NC(=O)c4cc5cc(CP(=O)(O)O)ccc5s4)C(=O)N32)C1` [Compound 593, ((2-(((3S,6S,9aS)-3-(3-(6-(difluoromethyl)-4-methoxypyridin-3-yl)azetidine-1-carbonyl)-5-oxooctahydro-1H-pyrrolo[1,2-a]azepin-6-yl)carbamoyl)benzo [b]thiophen-5-yl)methyl) phosphonic acid]: the concentration for half-maximal inhibition (IC50) in test [1] (setting [3]) was 1 to 10 µM; in test [2] (setting [4]), 3 to 30 µM.
With `O=C(N[C@H]1CCC[C@H]2CC[C@@H](C(=O)N3CC(c4ccccc4N4CCOCC4)C3)N2C1=O)c1cc2cc(C(F)P(=O)(O)O)ccc2s1` (stereo partly drawn) [Compound 670, (fluoro(2-(((3S,6S,9aS)-3-(3-(2-morpholinophenyl)azetidine-1-carbonyl)-5-oxooctahydro-1H-pyrrolo[1,2-a]azepin-6-yl)carbamoyl)benzo [b]thiophen-5-yl)methyl) phosphonic acid], the IC50 was in the range of 0.1 to 1 µM in test [1] (setting [3]) and 3 to 30 µM in test [2] (setting [4]).
`CN(C)c1cc(C2CN(C(=O)[C@@H]3CC[C@@H]4CCC[C@H](NC(=O)c5cc6cc([C@@H](F)P(=O)(O)O)ccc6s5)C(=O)N43)C2)ccn1` (single isomer, unassigned) [Compound 701]: the concentration for half-maximal inhibition (IC50) was 0.1 to 1 µM in test [1] (setting [3]) and 3 to 30 µM in test [2] (setting [4]).
For `O=C(N[C@H]1CCCC[C@H]2CC[C@@H](C(=O)N3C[C@@H](c4ccccc4)CC34CC4)N2C1=O)c1cc2cc(C(F)(F)P(=O)(O)O)ccc2s1` (single isomer, unassigned) [Compound 890], the IC50 in test [1] (setting [3]) is 1 to 10 µM; in test [2] (STAT6 (W123-T658) 250 nM, probe 5-FAM-ApYKPFQDLI-NH2 2 nM, read-out: STAT6 (FP assay IC50 class)), not above 0.3 µM.
In the case of `C[C@H]1C[C@H]2CC[C@@H](C(=O)N3CC(c4cncnc4N4CCC4)C3)N2C(=O)[C@@H](NC(=O)c2cc3cc([C@H](F)P(=O)(O)O)ccc3s2)C1` (single isomer, unassigned) [Compound 676], the figures for the IC50 in test [1] (setting [3]) and in test [2] (setting [4]) were less than 0.1 µM and 3 to 30 µM, respectively.
In the same order, the values of `N#Cc1ccncc1C1CN(C(=O)[C@@H]2CC[C@@H]3CCC[C@H](NC(=O)c4cc5cc(CP(=O)(O)O)ccc5s4)C(=O)N32)C1` [Compound 520, ((2-(((3S,6S,9aS)-3-(3-(4-cyanopyridin-3-yl)azetidine-1-carbonyl)-5-oxooctahydro-1H-pyrrolo[1,2-a]azepin-6-yl)carbamoyl)benzo[b]thiophen-5-yl)methyl)phosphonic acid] are 1 to 10 µM and 3 to 30 µM.
In the same order, the values of `O=C(N[C@H]1CCC[C@H]2CC[C@@H](C(=O)N3CCOC(c4cccnc4)C3)N2C1=O)c1cc2cc(C(F)(F)P(=O)(O)O)ccc2s1` (stereo partly drawn) [Compound 1124, (difluoro(2-(((3S,6S,9aS)-5-oxo-3-(2-(pyridin-3-yl)morpholine-4-carbonyl)octahydro-1H-pyrrolo[1,2-a]azepin-6-yl)carbamoyl)benzo[b]thiophen-5-yl)methyl)phosphonic acid] are 0.1 to 1 µM and not above 0.3 µM.
